Each structure is given as a SMILES string. Entries after “also recorded” stand apart in the source; their conditions may differ.

As a reminder, the EC50 is the concentration needed to bring the measured effect to its halfway point.

Common to all, as to assay type: cell-based
The subject of assay [1] is osteoclast calcium receptor. The assay is described as follows: [Ca^2+]i (indo-1) in rat osteoclasts.
Assay [2] addresses T1, parathyroid cell calcium receptor (Bos taurus, UniProt P35384).
T1 sequence (P35384 21-1085 limits assumed): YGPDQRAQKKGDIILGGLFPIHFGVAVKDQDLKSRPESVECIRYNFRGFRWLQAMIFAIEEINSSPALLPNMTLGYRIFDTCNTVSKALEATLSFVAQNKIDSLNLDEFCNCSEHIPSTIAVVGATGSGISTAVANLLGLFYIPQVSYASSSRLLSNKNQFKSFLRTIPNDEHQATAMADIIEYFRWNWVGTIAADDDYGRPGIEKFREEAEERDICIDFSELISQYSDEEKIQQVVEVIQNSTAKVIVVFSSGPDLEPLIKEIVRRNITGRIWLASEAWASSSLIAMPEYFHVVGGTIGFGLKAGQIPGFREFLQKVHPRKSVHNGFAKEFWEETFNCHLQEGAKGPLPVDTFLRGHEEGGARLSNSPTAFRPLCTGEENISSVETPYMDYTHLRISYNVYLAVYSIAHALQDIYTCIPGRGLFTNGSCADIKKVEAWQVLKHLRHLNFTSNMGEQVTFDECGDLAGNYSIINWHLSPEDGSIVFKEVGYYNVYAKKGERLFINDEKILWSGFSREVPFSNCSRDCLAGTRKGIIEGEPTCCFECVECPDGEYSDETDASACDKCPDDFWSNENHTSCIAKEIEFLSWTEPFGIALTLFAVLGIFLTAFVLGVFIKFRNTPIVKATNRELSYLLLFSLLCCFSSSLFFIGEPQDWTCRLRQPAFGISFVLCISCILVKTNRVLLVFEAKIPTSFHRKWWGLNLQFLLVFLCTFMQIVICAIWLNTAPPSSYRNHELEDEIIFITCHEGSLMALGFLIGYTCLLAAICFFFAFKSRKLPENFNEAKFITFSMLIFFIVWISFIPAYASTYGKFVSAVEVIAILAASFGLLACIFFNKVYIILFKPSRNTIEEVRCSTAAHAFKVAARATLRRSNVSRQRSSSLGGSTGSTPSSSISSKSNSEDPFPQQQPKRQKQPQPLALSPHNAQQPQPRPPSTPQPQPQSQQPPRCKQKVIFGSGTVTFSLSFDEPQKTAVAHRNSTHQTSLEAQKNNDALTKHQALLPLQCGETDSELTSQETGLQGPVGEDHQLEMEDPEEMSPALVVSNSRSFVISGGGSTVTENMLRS
Put plainly: cell-based.

The target of assay [3] is T2, bovine parathyroid cell calcium receptor (Bos taurus, UniProt P35384).
T2 construct: expressed in transfected cells; host or cells: Xenopus laevis oocytes injected with cRNA from BoPCaR 1
T2 sequence (P35384 21-1085 limits assumed): T1 sequence (P35384 21-1085 limits assumed)
Put plainly: Cl^- current in Xenopus oocytes expressing BoPCaR 1. How it is done: These responses are mediated by the following series of biochemical events:
Xenopus oocytes were injected with BoPCaR 1, the 5.3 Kb cDNA encoding a bovine parathyroid cell calcium receptor as described in Example 25. After two to three days, Cl^- currents were examined in the oocytes using a two-electrode voltage clamp.
Xenopus oocytes were injected with BoPCaR 1 as described in Example 25. After two to three days, Cl^- currents were examined in the oocytes using two electrode voltage clamp.

In assay [4] the target is T3, human parathyroid cell calcium receptor (Homo sapiens, UniProt P41180).
T3 construct: cRNA injected in Xenopus oocytes
T3 sequence (P41180 20-1078 R990G/E1011Q): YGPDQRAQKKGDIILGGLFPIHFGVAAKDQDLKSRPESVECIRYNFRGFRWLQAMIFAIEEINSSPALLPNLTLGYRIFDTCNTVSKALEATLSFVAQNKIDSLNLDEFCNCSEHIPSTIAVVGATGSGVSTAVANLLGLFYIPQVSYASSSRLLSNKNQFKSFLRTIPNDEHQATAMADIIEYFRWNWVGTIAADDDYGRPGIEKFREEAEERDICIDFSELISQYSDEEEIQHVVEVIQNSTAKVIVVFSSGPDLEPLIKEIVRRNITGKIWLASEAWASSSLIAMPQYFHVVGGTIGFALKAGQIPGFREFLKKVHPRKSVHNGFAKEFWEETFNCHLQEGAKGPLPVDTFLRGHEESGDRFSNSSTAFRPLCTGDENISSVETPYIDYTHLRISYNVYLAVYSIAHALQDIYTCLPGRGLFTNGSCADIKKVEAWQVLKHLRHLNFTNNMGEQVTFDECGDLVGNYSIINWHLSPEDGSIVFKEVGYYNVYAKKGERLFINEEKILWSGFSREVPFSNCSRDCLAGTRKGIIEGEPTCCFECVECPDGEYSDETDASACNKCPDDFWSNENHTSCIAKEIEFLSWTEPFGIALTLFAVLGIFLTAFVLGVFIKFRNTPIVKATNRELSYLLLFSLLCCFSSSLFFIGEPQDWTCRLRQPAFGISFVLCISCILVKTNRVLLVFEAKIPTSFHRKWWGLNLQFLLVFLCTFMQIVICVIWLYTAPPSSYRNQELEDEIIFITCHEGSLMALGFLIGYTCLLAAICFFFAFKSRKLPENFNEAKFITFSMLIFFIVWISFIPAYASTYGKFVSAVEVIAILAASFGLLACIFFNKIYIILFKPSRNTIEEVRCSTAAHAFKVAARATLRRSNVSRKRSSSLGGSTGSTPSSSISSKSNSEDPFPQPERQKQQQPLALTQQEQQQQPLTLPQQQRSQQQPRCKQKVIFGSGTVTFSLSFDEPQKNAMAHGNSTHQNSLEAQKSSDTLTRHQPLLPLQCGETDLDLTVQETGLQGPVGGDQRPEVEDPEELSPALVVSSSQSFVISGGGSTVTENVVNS
Put plainly: Cl^- current in Xenopus oocytes expressing cloned human parathyroid calcium receptor. The note with it: for Cl^- current: 0.3 mM extracellular Ca^2+, NPS 019 3 to 30 μM. How it is done: Representative cDNA inserts for both size classes were subcloned into the plasmid vector pBluescript SK. Linearization followed by in vitro transcription using T7 RNA polymerase produced cRNA transcripts. The cRNA transcripts were injected into Xenopus oocytes (150 ng/μl RNA; 50 nl/oocyte) for functional analysis. Following incubation periods of 2-4 days, the oocytes were assayed for the presence of functional calcium receptors. Both clone types gave rise to functional calcium receptors as assessed by the stimulation of calcium-activated chloride currents upon addition of appropriate calcium receptor agonists. […] Thus, both clones encode a functional, human parathyroid cell calcium receptor.
Xenopus oocytes were injected with pHuPCaR 5.2, the 5.2 Kb cDNA encoding a parathyroid cell calcium receptor derived from a human parathyroid cell adenoma. (See Example 27.) After two to three days, Cl^- currents were measured in the oocytes using a two-electrode voltage clamp.

For `NCCCNCCCCNCCCNCCCNCCCNC(=O)Cc1c[nH]c2ccccc12` [NPS 019, reference compound], the EC50 in assay [1] (Table 6, rat osteoclasts) is > 300 µM; in assay [2] (Table 6, bovine parathyroid cells, read-out: EC50 PARATHYROID) it was 40 µM. Besides, the “Cl^- current response in absence of extracellular Ca^2+” value (shortened to “Cl^- current response in absence”) in assay [3] and in assay [4] was “persisted” in each case. For the same molecule, the “Cl^- current” value in assay [3] (1 mM extracellular Ca^2+) was “oscillatory increases in the Cl^- current”; in assay [4] it was “evoked increases in the Cl^- current”.
Consider `COc1cccc([C@@H](C)NCCCc2ccccc2Cl)c1` [NPS R-568, (R)-(+)-N-[3-(2-chlorophenyl)propyl]-α-methyl-3-methoxybenzylamine], for which, in assay [2] (no extracellular Ca^2+, NPS R-467 30 μM), the “[Ca^2+]i response in Ca^2+-free buffer” value is “fails to evoke increases in [Ca^2+ ]i”. Moreover, in assay [3], the “Cl^- current response in absence” value was “abolished”, the “effect on concentration-response curve of NPS 019” value is listed as “shifts the concentration-response curve of NPS 019 to the left” and the “effect on responses to submaximal extracellular Ca^2+” value was “potentiated the responses”. Further, in assay [4], the “Cl^- current response in absence” value was “abolished” and the “Cl^- current” value is listed as “evoked increases in the Cl^- current”. Moreover, the “activation of oocyte-expressed human receptor” value in assay [4] (pHuPCaR 5.2 and 4.0) is reported as “activated the oocyte-expressed receptor at about the same concentrations”.
For `NC[C@@H]1O[C@H](O[C@H]2[C@@H](O)[C@H](O[C@@H]3[C@@H](O)[C@H](N)C[C@H](N)[C@H]3O[C@H]3O[C@H](CN)[C@@H](O)[C@H](O)[C@H]3N)O[C@@H]2CO)[C@H](N)[C@@H](O)[C@@H]1O` [Neomycin], in assay [1], the “effect on osteoclast response to extracellular Ca^2+” value is recorded as “did not block the increase” and the “increase in [Ca^2+]i in osteoclasts” value is “failed to evoke any increase in [Ca^2+ ]i; also recorded: Neither neomycin (10 mM) nor spermine (10 or 20 mM) caused increases”. In addition, the “increase in [Ca^2+]i in osteoclasts or effect on basal” value in assay [1] (neomycin B 5 mM) was “without effect on basal [Ca^2+ ]i”. The inward currents entry in assay [3] (Ca^2+ 5 mM, Mg^2+ 1.0-20 mM, Gd^3+ 600 μM, neomycin 200 μM) is “large inward currents”.

Source of the values: patent publication US5688938A, “Calcium receptor-active molecules” (priority 1995, dated 1997).
